Measurements from publication PMC5515969, “Effects of 31 FDA approved small-molecule kinase inhibitors on isolated rat liver mitochondria” (Archives of Toxicology, 2016).
Read-outs that look alike come from different tables or passages of the source.

What was measured:
RCC I = RCC I activity in submitochondrial particles; format: biochemical, rat; parameters: key to RCC I at 10XCmax / RCC I at 100XCmax / RCC I at 50XCmax / RCC I at 30XCmax / RCC I at 20XCmax: activity relative to DMSO-treated controls (control set as 1 = 100%); settings: 10XCmax; DMSO treated samples set as 1
Outline: (§1)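 Inhibitors preincubated 15 min with submitochondrial particles (1 mg/ml) before activity readout. RCC I (rotenone-sensitive fraction) and I/V: A340, and RCC II: A600, each every 1 min for 6 min; RCC III/IV: A550 every 10 s for 2 min. Activities relative to DMSO control set as 1.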

[1] = cited from earlier work
[2] = tested on: isolated rat liver mitochondria; experiment: Mitochondrial swelling (absorbance at 535 nm); format: biochemical; settings: difference in signal between KI and DMSO treated samples at the end of experiments; for Swelling 5XCmax: key: 0 indicates that the drug had no effects (negative)
[3] = tested on: isolated rat liver mitochondria; experiment: Mitochondrial inner membrane potential (MMP), Rhodamine 123; format: biochemical; settings: difference in signal between KI and DMSO treated samples at the end of experiments
Excerpt: Fig. 3 KI effects on mitochondrial inner membrane potential (MMP). […] In a, c, data are means and standard derivations from three separate experiments. *p < 0.05 as compared to DMSO-treated samples at the end of experiments. In b, data are means of two independent experiments

[4] = cited from earlier work; remark: listed apart in the source
RCC IV = RCC IV activity in submitochondrial particles; format: biochemical, rat; parameters: key to RCC IV at 50XCmax / RCC IV at 100XCmax: activity relative to DMSO-treated controls (control set as 1 = 100%); settings: 50XCmax; DMSO treated samples set as 1; in %
Outline: as §1

RCC II = target: T1, RCC II (Rattus norvegicus, UniProt P21913+Q641Z9+Q6PCT8+Q920L2); experiment: RCC II activity in submitochondrial particles; format: biochemical; parameters: key: activity relative to DMSO-treated controls (control set as 1 = 100%); settings: DMSO treated samples set as 1
T1 construct: Submitochondrial particles were prepared by subjecting the intact mitochondria to three successive freeze–thaw cycles; from tissue; host or cells: rat liver mitochondria, used as submitochondrial particles
T1 sequence (Q920L2 35-656): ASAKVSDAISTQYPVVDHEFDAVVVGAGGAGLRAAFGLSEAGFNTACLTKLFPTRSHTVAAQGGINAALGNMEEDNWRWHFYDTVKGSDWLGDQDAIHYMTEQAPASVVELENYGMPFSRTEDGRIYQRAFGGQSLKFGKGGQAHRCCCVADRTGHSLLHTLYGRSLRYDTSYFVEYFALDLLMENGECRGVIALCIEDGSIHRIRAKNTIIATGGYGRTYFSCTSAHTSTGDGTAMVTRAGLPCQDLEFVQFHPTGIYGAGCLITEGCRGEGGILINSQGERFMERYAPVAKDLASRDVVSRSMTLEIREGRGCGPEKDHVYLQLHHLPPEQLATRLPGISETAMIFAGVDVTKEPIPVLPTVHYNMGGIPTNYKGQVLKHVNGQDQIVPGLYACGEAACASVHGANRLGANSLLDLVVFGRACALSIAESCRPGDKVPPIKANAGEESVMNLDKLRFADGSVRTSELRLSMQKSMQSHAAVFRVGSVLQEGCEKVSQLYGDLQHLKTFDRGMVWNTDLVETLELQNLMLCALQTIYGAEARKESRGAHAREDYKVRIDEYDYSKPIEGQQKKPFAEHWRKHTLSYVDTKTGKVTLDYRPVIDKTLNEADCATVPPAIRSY
T1 sequence (P21913 31-282): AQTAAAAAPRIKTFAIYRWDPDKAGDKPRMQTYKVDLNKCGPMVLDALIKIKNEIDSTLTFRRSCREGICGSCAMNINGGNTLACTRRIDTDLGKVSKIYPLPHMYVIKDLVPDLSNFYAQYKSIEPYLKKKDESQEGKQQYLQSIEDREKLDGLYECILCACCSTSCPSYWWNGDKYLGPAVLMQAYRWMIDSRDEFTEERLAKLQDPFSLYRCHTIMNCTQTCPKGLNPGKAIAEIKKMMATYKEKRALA
T1 sequence (Q641Z9 1-169): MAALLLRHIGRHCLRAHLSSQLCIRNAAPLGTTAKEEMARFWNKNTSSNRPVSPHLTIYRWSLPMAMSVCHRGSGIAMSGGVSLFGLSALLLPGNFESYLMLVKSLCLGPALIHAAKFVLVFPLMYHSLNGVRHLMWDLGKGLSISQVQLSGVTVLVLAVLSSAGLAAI
T1 sequence (Q6PCT8 57-159): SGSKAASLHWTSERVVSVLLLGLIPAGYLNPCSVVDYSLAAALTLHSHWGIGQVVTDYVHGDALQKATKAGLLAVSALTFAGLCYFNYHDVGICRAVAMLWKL
Outline: as §1

[5] = tested on: isolated rat liver mitochondria; experiment: Mitochondrial oxygen consumption (glutamate/malate or succinate driven, state 4 and state 3); format: biochemical; settings: DMSO treated samples set as 1; for State 3 respiration driven by succinate at 10XCmax: key: 0 indicates that the drug had no effects (negative); for State 3 respiration driven by succinate at 1XCmax: key: 0 indicates that the drug had no effects (negative)
Outline: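 Rat liver mitochondria (1 mg/ml protein) exposed 5 min to kinase inhibitors in 0.1% DMSO, then O2 consumption measured by Clark-type electrode with glutamate/malate or succinate (state 4), ADP added after 3 min (state 3). Rates normalized to 0.1% DMSO controls set to 1.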

[6] = tested on: isolated rat liver mitochondria; settings: positive control alamethicin treated samples
RCC V = RCC V activity in submitochondrial particles; format: biochemical, rat; settings: DMSO treated samples set as 1; for RCC V at 5XCmax: key: 0 indicates that the drug had no effects (negative)
Outline: as §1

COC(=O)c1ccc2c(c1)NC(=O)/C2=C(\Nc1ccc(N(C)C(=O)CN2CCN(C)CC2)cc1)c1ccccc1 [Nintedanib]
RCC I at 10XCmax (RCC I): 0 | Cmax ([1]; human therapeutic Cmax at FDA recommended dosages, ref product labeling and drug approval packages at the official FDA website): 0.06 µM | Cmax (ng or µg/ml) ([1]; human therapeutic maximal blood concentration, ref product labeling): 0.0349 µg/mL | Cmax ([1]; read-out: Cmax at µM, human therapeutic maximal blood concentration, ref product labeling): 0.06 µM | Swelling 1XCmax ([2]; 1XCmax): 0 | Swelling 2.5XCmax ([2]; 2.5XCmax): 0 | Swelling 5XCmax ([2]; 5XCmax): 0 | Swelling 10XCmax ([2]; 10XCmax): 0 | Swelling 20XCmax ([2]; 20XCmax): 0 | Swelling 30XCmax ([2]; 30XCmax): 0 | Swelling 50XCmax ([2]; 50XCmax): 0 | Swelling 100XCmax ([2]; 100XCmax): 0 | MMP measured by Rhodamine 123 at 1XCmax ([3]; 1XCmax): 0 | MMP measured by Rhodamine 123 at 2.5XCmax ([3]; 2.5XCmax): 0 | MMP measured by Rhodamine 123 at 5XCmax ([3]; 5XCmax): 0 | MMP measured by Rhodamine 123 at 10XCmax ([3]; 10XCmax): 0 | MMP measured by Rhodamine 123 at 20XCmax ([3]; 20XCmax): 0 | MMP measured by Rhodamine 123 at 30XCmax ([3]; 30XCmax): 0 | MMP measured by Rhodamine 123 at 50XCmax ([3]; 50XCmax): 0 | MMP measured by Rhodamine 123 at 100XCmax ([3]; 100XCmax): 0 | DILI potential (based on labeling) ([4]; 1 DILI positive, 0 negative according to labeling, ref product labeling): 1 | Labeling for DILI ([4]; BBW: black box warning, W&P: Warnings and Precautions, ref product labeling): W&P: ALT↑ | labeling for DILI ([4]; W&P warnings and precautions, BBW black box warnings, ref FDA product labeling): W&P: ALT↑/monitoring | DILI potential (based on labeling) ([4]; ref FDA product labeling): 1 | RCC IV at 50XCmax (RCC IV): 0 | RCC II at 1.0XCmax (RCC II; 1.0XCmax): 0 | RCC II at 2.5XCmax (RCC II; 2.5XCmax): 0 | RCC II at 5XCmax (RCC II; 5XCmax): 0 | RCC II at 10XCmax (RCC II; 10XCmax): 0 | RCC II at 20XCmax (RCC II; 20XCmax): 0 | RCC II at 30XCmax (RCC II; 30XCmax): 0 | RCC II at 50XCmax (RCC II; 50XCmax): 0 | RCC II at 100XCmax (RCC II; 100XCmax): 0 | State 3 respiration driven by glutamate/malate at 1XCmax ([5]; 1XCmax): 0 | State 3 respiration driven by succinate at 1XCmax ([5]; 1XCmax): 0 | State 4 respiration driven by glutamate/malate at 1XCmax ([5]; 1XCmax): 0 | State 4 respiration driven by succinate at 1XCmax ([5]; 1XCmax): 0 | State 3 respiration driven by glutamate/malate at 2.5XCmax ([5]; 2.5XCmax): 0 | State 3 respiration driven by succinate at 2.5XCmax ([5]; 2.5XCmax): 0 | State 4 respiration driven by glutamate/malate at 2.5XCmax ([5]; 2.5XCmax): 0 | State 4 respiration driven by succinate at 2.5XCmax ([5]; 2.5XCmax): 0 | State 3 respiration driven by glutamate/malate at 5XCmax ([5]; 5XCmax): 0 | State 3 respiration driven by succinate at 5XCmax ([5]; 5XCmax): 0 | State 4 respiration driven by glutamate/malate at 5XCmax ([5]; 5XCmax): 0 | State 4 respiration driven by succinate at 5XCmax ([5]; 5XCmax): 0 | State 3 respiration driven by glutamate/malate at 10XCmax ([5]; 10XCmax): 0 | State 3 respiration driven by succinate at 10XCmax ([5]; 10XCmax): 0 | State 4 respiration driven by glutamate/malate at 10XCmax ([5]; 10XCmax): 0 | State 4 respiration driven by succinate at 10XCmax ([5]; 10XCmax): 0 | State 3 respiration driven by glutamate/malate at 20XCmax ([5]; 20XCmax): 0 | State 3 respiration driven by succinate at 20XCmax ([5]; 20XCmax): 0 | State 4 respiration driven by glutamate/malate at 20XCmax ([5]; 20XCmax): 0 | State 4 respiration driven by succinate at 20XCmax ([5]; 20XCmax): 0 | State 3 respiration driven by glutamate/malate at 30XCmax ([5]; 30XCmax): 0 | State 3 respiration driven by succinate at 30XCmax ([5]; 30XCmax): 0 | State 4 respiration driven by glutamate/malate at 30XCmax ([5]; 30XCmax): 0 | State 4 respiration driven by succinate at 30XCmax ([5]; 30XCmax): 0 | State 3 respiration driven by glutamate/malate at 50XCmax ([5]; 50XCmax): 0 | State 3 respiration driven by succinate at 50XCmax ([5]; 50XCmax): 0 | State 4 respiration driven by glutamate/malate at 50XCmax ([5]; 50XCmax): 0 | State 4 respiration driven by succinate at 50XCmax ([5]; 50XCmax): 0 | State 3 respiration driven by glutamate/malate at 100XCmax ([5]; 100XCmax): 0 | State 3 respiration driven by succinate at 100XCmax ([5]; 100XCmax): 0 | State 4 respiration driven by glutamate/malate at 100XCmax ([5]; 100XCmax): 0 | State 4 respiration driven by succinate at 100XCmax ([5]; 100XCmax): 0 | Cytochrome c release 1XCmax ([6]; 1XCmax): 0 | Cytochrome c release 2.5XCmax ([6]; 2.5XCmax): 0 | Cytochrome c release 5XCmax ([6]; 5XCmax): 0 | Cytochrome c release 10XCmax ([6]; 10XCmax): 0 | Cytochrome c release 20XCmax ([6]; 20XCmax): 0 | Cytochrome c release 30XCmax ([6]; 30XCmax): 0 | Cytochrome c release 50XCmax ([6]; 50XCmax): 0 | Cytochrome c release 100XCmax ([6]; 100XCmax): 0 | RCC V at 5XCmax (RCC V; 5XCmax): 0 | RCC V at 50XCmax (RCC V; 50XCmax): 0
